Literature values in US20200353057A1, “REDUCING IMMUNOGENICITY TO PEGLOTICASE” (Horizon Pharma Rheumatology LLC, priority 2019, published 2020).
Read-outs that look alike come from different tables or passages of the source. One block for each compound: values may come before it.

What was measured:
[1] = for Detectable in urine: after 8 hours; for Bound to serum proteins: in vivo
[2] = test system: renal transplant and RA patients
[3] = test system: patients treated with allopurinol; details: human, in vivo
[4] = diluted in infusion bags
[5] = test system: organ transplant recipients; details: in vivo
[6] = test system: patients with refractory chronic gout
[7] = test system: patients with refractory chronic gout; details: Phase 2 program
[8] = test system: subjects with refractory gout; details: doses of 4 to 12 mg, within 24 to 72 hours, from 11.1±0.6 mg/dL
[9] = test system: patients with lupus nephritis; details: in vivo

Compound: pegloticase
Stability of diluted solution ([4]; 2° C. to 8° C.): 4 h | Stability of diluted solution ([4]; room temperature (20° C. to 25° C.)): 4 h | Organ transplant recipients with a sustained high titer Ab response to pegloticase [5]: one out of seven | Patients maintaining a response, antibody titer exceeding 1:2430 at any time ([6]; 7 of 65 patients, another study): 10.8% | Patients with IRs in whom loss of response (return to SUA ≥6 mg/dL) preceded the first IR ([6]; 20/21): 95% | Patients with titers exceeding 1:2430 who developed IRs ([6]; 31 of 52): 60% | Patients maintaining a response, never had an antibody titer above 1:2430 ([6]; 58/65, another study): 89.2% | Patients who developed high titer anti-pegloticase antibodies and subsequently lost response ([6]; 69 of 169 patients, one study): 41% | Occurrence of most common adverse reactions (gout flares, infusion reactions, nausea, contusion or ecchymosis, nasopharyngitis, constipation, chest pain, anaphylaxis, vomiting) ([6]; KXX-treated patients): ≥ 5% | Occurrence of ecchymoses, sore throat, constipation, chest pain, and vomiting ([6]; patients treated with pegloticase): at least 5% | Incidence of infusion-related reactions ([6]; pooled Phase 3, 8 mg biweekly dosing): 26% | Incidence of infusion-related reactions ([6]; pooled Phase 3, 8 mg every-4-week dosing regimen): 40% | Anaphylaxis frequency ([6]; pre-marketing controlled clinical trials): 6.5% | Infusion reactions reported ([6]; pre-marketing controlled clinical trials, 8 mg every 2 weeks): 26% | Participants with high antibody titers who maintained a response (serum urate <6 mg/dL) ([6]; second study): 1 of 52 | Participants with high titers who developed IR ([6]; second study): 60% | Dose-response plateau dose [7]: 12 mg | Minimally effective dose [7]: 4 mg | Safe and optimally effective dose [7]: 8 mg | pUAc (plasma urate concentration) after dosing, mean±SD [8]: 1.0±0.5 mg/dL

Compound: rituximab: biologic arm of a lupus nephritis RCT on top of MMF and glucocorticoids
Rate of serious infections [9]: 16.6 /100 patient-years

Further lines, with some results ahead:

Bound to serum proteins [1]: 30% | Absorption following oral administration ([1]; oral): well absorbed | Increased susceptibility to infection ([2]; RA): < 1% | Leukopenia ([2]; RA): 28% | Nausea and vomiting ([2]; RA): 12% | Increased susceptibility to infection ([2]; renal transplant): 20% | Leukopenia ([2]; renal transplant): > 50% | Neoplasia (lymphoma) ([2]; renal transplant): 0.5% | Neoplasia (other than lymphoma) ([2]; renal transplant): 3%
Compound: COc1c(C)c2c(c(O)c1C/C=C(\C)CCC(=O)OCCN1CCOCC1)C(=O)OC2 [Mycophenolate mofetil, 2-morpholinoethyl (E)-6-(1,3-dihydro4-hydroxy-6-methoxy-7-methyl-3-oxo-5-isobenzofuranyl)-4-methyl-4-hexenoate]
Detectable in urine [1]: no mycophenolate mofetil or mercaptopurine is detectable in urine | Teratogenic effects (rabbits): teratogenic effects | Teratogenic effects (rats): teratogenic effects

Patients who develop allergic reactions [3]: Approximately 2% | Patients with severe hypersensitivity syndrome [3]: about 0.4%
Compound: Oc1ncnc2[nH]ncc12 [allopurinol]

Bound to serum proteins [1]: 30%
Compound: Sc1ncnc2nc[nH]c12 [mercaptopurine, 6-mercaptopurine]
Detectable in urine [1]: no mycophenolate mofetil or mercaptopurine is detectable in urine
